Measured values taken from patent US5665736A, “N-benzoylmethyl-piperidines” (priority 1995, dated 1997).
Where a name gives a salt, the structure may show the parent alone.

Tested on: mice
Assay: Irwin test in mice, oral administration
Format: in vivo
Excerpt: These findings are most important, since the safety range of the compounds of this invention makes them be highly useful for their clinical application.

O=C(CN1CC[C@@H](c2ccc(F)cc2)[C@H](COc2ccc3c(c2)OCO3)C1)c1ccc(F)cc1 [Example 1, (-)-Trans-N-p-fluorobenzoylmethyl-4-(p-fluorophenyl)-3-[[3,4-(methylenedioxy)phenoxy]methyl]-piperidine hydrochloride]
signs of toxicity, Irwin test (600 mg/kg): did not show any sign of toxicity

O=C(CN1CC[C@@H](c2ccc(F)cc2)[C@H](COc2ccc3c(c2)OCO3)C1)c1ccc(Cl)cc1 [Example 2, (-)-Trans-N-p-chlorobenzoylmethyl-4-(p-fluorophenyl)-3-[[3,4-(methylenedioxy)phenoxy]methyl]-piperidine hydrochloride]
signs of toxicity, Irwin test (800 mg/kg): merely the onset of manifestations of hyperactivity was observed

Fc1ccc([C@@H]2CCNC[C@H]2COc2ccc3c(c2)OCO3)cc1 [Paroxetine, (-)-trans-4-(p-fluorophenyl)-3-[[3,4-(methylenedioxy)phenoxy]methyl]-piperidine, reference compound]
signs of toxicity, Irwin test (400 mg/kg): convulsions, mydriasis and Straub tail
